Source: patent US20240067632A1, “WEE1 Degrading Compounds and Uses Thereof” (Bristol-Myers Squibb Company, priority 2022, published 2024)

Columns and labels:
WEE1 = target: T1, WEE1 (Homo sapiens, UniProt P30291+Q96SW2); test: WEE1-ePL degradation assay (LentiX-WEE1-ePL-GSPT1-ND cells, InCELL Hunter luminescence, 4 h); assay type: cell-based; conditions: 293T-LentiX WEE1-ePL cells; for 293T-LentiX WEE1-ePL Degradation 4 hr (Ymin): lower limit of the fit (0 = luciferase inhibitor, Ymax = DMSO control); for DC50: read-out: 293T-LentiX WEE1-ePL Degradation 4 hr (EC50)
T1 construct: C-terminal ePL-tagged (DiscoverX, Fremont, CA) full-length WEE1 expression construct; expressed in transfected cells; host or cells: LentiX-HEK293T (Invitrogen), lentiviral transduction; co-expressing GSPT1-GN (G576N, lacking the first 158 amino acids)
Summary of the method: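 First, compounds were pre-plated as 10-point, 3-fold dilutions (top 1 uM or 10 uM) with DMSO control; next, WEE1-ePL-expressing HEK293T cells were added and held 4 h at 37 °C; finally, InCELL Hunter reagent was applied for 30 min before luminescence reading. A 4PL fit gave EC50 and Ymin.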

MKN45 cells = test: MKN45 cell proliferation assay (Cell-Titer-Glo, 120 h); assay type: cell-based; conditions: for EC50: Homo sapiens, MKN-45, 120 h, Cell-Titer-Glo, growth inhibition, read-out: MKN45 Cell Prolif. 120 hr (EC50); for MKN45 Cell Prolif. 120 hr (Ymin-Obs): minimal percent of DMSO control observed in the concentrations tested
Summary of the method: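 Growth inhibition was read as blank-corrected Cell-Titer-Glo luminescence expressed as percent DMSO control after 120 h at 37 C, 400 cells/well. Compounds tested in triplicate as 10-point half-log series from 1 or 10 uM, 0.1% DMSO; four-parameter fit gave EC50, and lowest observed percent control was reported as Ymin-obs.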

SMILES	293T-LentiX WEE1-ePL Degradation 4 hr (Ymin) (WEE1)	DC50 (WEE1)	EC50 (MKN45 cells)	MKN45 Cell Prolif. 120 hr (Ymin-Obs) (MKN45 cells)
O=C1CCC(N2Cc3cc(O[C@H]4CCN(Cc5ccc6nc(N7CCC78COC8)ccc6c5)C4)ccc3C2=O)C(=O)N1 (stereo partly drawn) [3-(5-{[(3S)-1-[(2-{6-oxa-1-azaspiro[3.3]heptan-1-yl}quinolin-6-yl)methyl]pyrrolidin-3-yl]oxy}-1-oxo-2,3-dihydro-1H-isoindol-2-yl)piperidine-2,6-dione]	35	6.17 nM	3.82 nM	8.91
O=C1CCC(N2Cc3cc(O[C@H]4CCN(Cc5ccc6nc(N7CCC78CCOCC8)ncc6c5)C4)ccc3C2=O)C(=O)N1 (stereo partly drawn) [3-(5-{[(3S)-1-[(2-{7-oxa-1-azaspiro[3.5]nonan-1-yl}quinazolin-6-yl)methyl]pyrrolidin-3-yl]oxy}-1-oxo-2,3-dihydro-1H-isoindol-2-yl)piperidine-2,6-dione]	37	11.4 nM	12.6 nM	13.59
O=C1CCC(N2Cc3cc(O[C@H]4CCN(Cc5ccc6nc(N7CCC78CCOCC8)ccc6c5)C4)ccc3C2=O)C(=O)N1 (stereo partly drawn) [3-(5-{[(3S)-1-[(2-{7-oxa-1-azaspiro[3.5]nonan-1-yl}quinolin-6-yl)methyl]pyrrolidin-3-yl]oxy}-1-oxo-2,3-dihydro-1H-isoindol-2-yl)piperidine-2,6-dione]	33	6.05 nM	3.7 nM	7.36
O=C1CCC(N2Cc3cc(O[C@H]4CCN(Cc5ccc6nc(N7CC8(CCOCC8)C7)ncc6c5)C4)ccc3C2=O)C(=O)N1 (stereo partly drawn) [3-(5-{[(3S)-1-[(2-{7-oxa-2-azaspiro[3.5]nonan-2-yl}quinazolin-6-yl)methyl]pyrrolidin-3-yl]oxy}-1-oxo-2,3-dihydro-1H-isoindol-2-yl)piperidine-2,6-dione]	35	16.6 nM	10.2 nM	9.958
O=C1CCC(N2Cc3cc(O[C@H]4CCN(Cc5ccc6nc(N7CC8(CCOCC8)C7)ccc6c5)C4)ccc3C2=O)C(=O)N1 (stereo partly drawn) [3-(5-{[(3S)-1-[(2-{7-oxa-2-azaspiro[3.5]nonan-2-yl}quinolin-6-yl)methyl]pyrrolidin-3-yl]oxy}-1-oxo-2,3-dihydro-1H-isoindol-2-yl)piperidine-2,6-dione]	36	1.94 nM	2.84 nM	10.13
O=C1CCC(N2Cc3cc(O[C@H]4CCN(Cc5ccc6nc(N7CCCC78CCOCC8)ncc6c5)C4)ccc3C2=O)C(=O)N1 (stereo partly drawn) [3-(5-{[(3S)-1-[(2-{8-oxa-1-azaspiro[4.5]decan-1-yl}quinazolin-6-yl)methyl]pyrrolidin-3-yl]oxy}-1-oxo-2,3-dihydro-1H-isoindol-2-yl)piperidine-2,6-dione]	47	18.1 nM	14.1 nM	20.87
O=C1CCC(N2Cc3cc(O[C@H]4CCN(Cc5ccc6nc(N7CCCC78CCOCC8)ccc6c5)C4)ccc3C2=O)C(=O)N1 (stereo partly drawn) [3-(5-{[(3S)-1-[(2-{8-oxa-1-azaspiro[4.5]decan-1-yl}quinolin-6-yl)methyl]pyrrolidin-3-yl]oxy}-1-oxo-2,3-dihydro-1H-isoindol-2-yl)piperidine-2,6-dione]	47	11.3 nM	15.5 nM	20.2
O=C1CCC(N2Cc3cc(O[C@H]4CCN(Cc5ccc6ncc(F)cc6c5F)C4)ccc3C2=O)C(=O)N1 (stereo partly drawn) [3-(5-{[(3S)-1-[(3,5-difluoroquinolin-6-yl)methyl]pyrrolidin-3-yl]oxy}-1-oxo-2,3-dihydro-1H-isoindol-2-yl)piperidine-2,6-dione]	28.96	8.71 nM	38.3 nM	12.86
Cc1cnc2ccc(CN3CC[C@H](Oc4ccc5c(c4)CN(C4CCC(=O)NC4=O)C5=O)C3)c(C)c2c1 (stereo partly drawn) [3-(5-{[(3S)-1-[(3,5-dimethylquinolin-6-yl)methyl]pyrrolidin-3-yl]oxy}-1-oxo-2,3-dihydro-1H-isoindol-2-yl)piperidine-2,6-dione]	39.05	7.92 nM	93.8 nM	53.11
Cc1cncc(CN2CC[C@H](Oc3ccc4c(c3)CN(C3CCC(=O)NC3=O)C4=O)C2)c1C (stereo partly drawn) [3-(5-{[(3S)-1-[(4,5-dimethylpyridin-3-yl)methyl]pyrrolidin-3-yl]oxy}-1-oxo-2,3-dihydro-1H-isoindol-2-yl)piperidine-2,6-dione]	37.63	40.7 nM	407 nM	62.92
CN1CC(=O)Oc2cc(CN3CC[C@H](Oc4ccc5c(c4)CN(C4CCC(=O)NC4=O)C5=O)C3)ccc21 (stereo partly drawn) [3-(5-{[(3S)-1-[(4-methyl-2-oxo-3,4-dihydro-2H-1,4-benzoxazin-7-yl)methyl]pyrrolidin-3-yl]oxy}-1-oxo-2,3-dihydro-1H-isoindol-2-yl)piperidine-2,6-dione]	52	24.2 nM	> 10000 nM	91.915
CN1C(=O)COc2ccc(CN3CC[C@H](Oc4ccc5c(c4)CN(C4CCC(=O)NC4=O)C5=O)C3)cc21 (stereo partly drawn) [3-(5-{[(3S)-1-[(4-methyl-3-oxo-3,4-dihydro-2H-1,4-benzoxazin-6-yl)methyl]pyrrolidin-3-yl]oxy}-1-oxo-2,3-dihydro-1H-isoindol-2-yl)piperidine-2,6-dione]	56	47.9 nM	> 10000 nM	84.725

Continued, in another order:

293T-LentiX WEE1-ePL Degradation 4 hr (Ymin) (WEE1)	DC50 (WEE1)	EC50 (MKN45 cells)	SMILES	MKN45 Cell Prolif. 120 hr (Ymin-Obs) (MKN45 cells)
33.29	6.95 nM	53.6 nM	Cc1nc2ccc(CN3CC[C@H](Oc4ccc5c(c4)CN(C4CCC(=O)NC4=O)C5=O)C3)cc2cc1F (stereo partly drawn) [3-(5-{[(3S)-1-[(3-fluoro-2-methylquinolin-6-yl)methyl]pyrrolidin-3-yl]oxy}-1-oxo-2,3-dihydro-1H-isoindol-2-yl)piperidine-2,6-dione]	18.86
34.66	8.72 nM	75.7 nM	O=C1CCC(N2Cc3cc(O[C@H]4CCN(Cc5ccc6ncc(F)cc6c5)C4)ccc3C2=O)C(=O)N1 (stereo partly drawn) [3-(5-{[(3S)-1-[(3-fluoroquinolin-6-yl)methyl]pyrrolidin-3-yl]oxy}-1-oxo-2,3-dihydro-1H-isoindol-2-yl)piperidine-2,6-dione]	19.555
34	3.25 nM	19.1 nM	COc1cnc2ccc(CN3CC[C@H](Oc4ccc5c(c4)CN(C4CCC(=O)NC4=O)C5=O)C3)cc2c1 (stereo partly drawn) [3-(5-{[(3S)-1-[(3-methoxyquinolin-6-yl)methyl]pyrrolidin-3-yl]oxy}-1-oxo-2,3-dihydro-1H-isoindol-2-yl)piperidine-2,6-dione]	12.81
38.21	4.47 nM	63.5 nM	Cc1cnc2ccc(CN3CC[C@H](Oc4ccc5c(c4)CN(C4CCC(=O)NC4=O)C5=O)C3)cc2c1 (stereo partly drawn) [3-(5-{[(3S)-1-[(3-methylquinolin-6-yl)methyl]pyrrolidin-3-yl]oxy}-1-oxo-2,3-dihydro-1H-isoindol-2-yl)piperidine-2,6-dione]	21.51
32.06	4.29 nM	392 nM	Cc1cc(Cl)c2cc(CN3CC[C@H](Oc4ccc5c(c4)CN(C4CCC(=O)NC4=O)C5=O)C3)ccc2n1 (stereo partly drawn) [3-(5-{[(3S)-1-[(4-chloro-2-methylquinolin-6-yl)methyl]pyrrolidin-3-yl]oxy}-1-oxo-2,3-dihydro-1H-isoindol-2-yl)piperidine-2,6-dione]	44.06
69.445	22.7 nM	≥ 10000 nM	Cc1cc(F)c2cc(CN3CC[C@H](Oc4ccc5c(c4)CN(C4CCC(=O)NC4=O)C5=O)C3)ccc2n1 (stereo partly drawn) [3-(5-{[(3S)-1-[(4-fluoro-2-methylquinolin-6-yl)methyl]pyrrolidin-3-yl]oxy}-1-oxo-2,3-dihydro-1H-isoindol-2-yl)piperidine-2,6-dione]	24.82
73	528 nM	> 10000 nM	Cc1cc(O)c2cc(CN3CC[C@H](Oc4ccc5c(c4)CN(C4CCC(=O)NC4=O)C5=O)C3)ccc2n1 (stereo partly drawn) [3-(5-{[(3S)-1-[(4-hydroxy-2-methylquinolin-6-yl)methyl]pyrrolidin-3-yl]oxy}-1-oxo-2,3-dihydro-1H-isoindol-2-yl)piperidine-2,6-dione]	87.83
44.38	26.8 nM	1500 nM	COc1cc(C)nc2ccc(CN3CC[C@H](Oc4ccc5c(c4)CN(C4CCC(=O)NC4=O)C5=O)C3)cc12 (stereo partly drawn) [3-(5-{[(3S)-1-[(4-methoxy-2-methylquinolin-6-yl)methyl]pyrrolidin-3-yl]oxy}-1-oxo-2,3-dihydro-1H-isoindol-2-yl)piperidine-2,6-dione]	47.92
